These are literature values, as cited in patent publication US20030229057A1, “Continuous sulfatase inhibiting progestogen hormone replacement therapy” (priority 2002, published 2003).

For this data set the following is noted: humans.

Take `C#C[C@]1(OC(C)=O)CC[C@H]2[C@@H]3CCC4=CC(=NO)CC[C@@H]4[C@H]3CC[C@@]21CC` (mixture of isomers) [norgestimate]: the “norgestimate being converted to norelgestromin in vivo” value is listed as at least 80%.
